Reference: patent US20260116910A1, “POLYCYCLIC COMPOUNDS AND METHODS THEREOF” (HEPAITECH (BEIJING) BIOPHARMA TECHNOLOGY CO., LTD., priority 2021, published 2026)
Like-named read-outs stand apart in the source and are kept apart here.

What was measured:
MRGPRX4 = MRGPRX4 (Homo sapiens, UniProt Q96LA9); assay: MRGPRX4 activation, Fluo-8 Ca2+ FLIPR assay in HEK293T cells stably expressing MRGPRX4; format: cell-based; parameters: key to MRGPRX4 activation, Average / MRGPRX4 activation, Ave.: fluorescence change dF/F0; details: for EC50: MRGPRX4 activation, Ca2+ fluorescence, no activation in tested range reported as III, read-out: Activity (EC50 μM)
Sequence of MRGPRX4 (Q96LA9 whole entry): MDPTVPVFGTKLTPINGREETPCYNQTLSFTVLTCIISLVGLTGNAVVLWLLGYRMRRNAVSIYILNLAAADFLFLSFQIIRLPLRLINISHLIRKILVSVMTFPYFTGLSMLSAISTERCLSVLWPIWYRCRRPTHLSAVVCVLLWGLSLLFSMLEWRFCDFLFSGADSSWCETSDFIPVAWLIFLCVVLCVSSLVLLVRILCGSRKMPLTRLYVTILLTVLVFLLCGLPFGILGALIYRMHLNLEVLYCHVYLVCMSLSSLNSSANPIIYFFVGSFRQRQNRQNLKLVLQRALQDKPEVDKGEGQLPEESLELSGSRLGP
How it was run: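 Response measured as dF/F0: 30 s baseline, then 150 s after compound addition on FLIPR Tetra, in HHBS after 40-60 min room-temperature loading with 2 μM Fluo-8 AM.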

human FXR (NR1H4) = target: T1, human FXR (NR1H4) (Homo sapiens, UniProt Q96RI1); assay: Human FXR (NR1H4) agonist assessment, FXRE-NanoLuc reporter in HEK293T cells; format: cell-based; details: for EC50: read-out: EC50
T1 sequence (Q96RI1 1-476 isoform Q96RI1-1): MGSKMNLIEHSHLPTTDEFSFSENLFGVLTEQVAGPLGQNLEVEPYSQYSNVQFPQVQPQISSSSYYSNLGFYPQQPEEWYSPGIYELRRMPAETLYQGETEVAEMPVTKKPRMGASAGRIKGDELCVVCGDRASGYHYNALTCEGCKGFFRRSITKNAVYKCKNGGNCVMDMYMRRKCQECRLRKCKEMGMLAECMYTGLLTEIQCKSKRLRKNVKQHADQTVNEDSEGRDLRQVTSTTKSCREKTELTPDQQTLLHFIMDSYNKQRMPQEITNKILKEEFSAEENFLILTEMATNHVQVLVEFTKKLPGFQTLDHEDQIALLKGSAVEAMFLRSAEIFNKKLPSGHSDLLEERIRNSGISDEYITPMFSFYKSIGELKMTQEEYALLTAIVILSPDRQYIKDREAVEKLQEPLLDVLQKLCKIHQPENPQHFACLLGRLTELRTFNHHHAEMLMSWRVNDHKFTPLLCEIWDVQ
How it was run: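 Read-out was NanoLuc luminescence in culture medium, measured 5 min after adding coelenterazine. Cells were HEK293T stably carrying human FXR and an FXRE reporter, exposed to compound for 24 hr at 37 °C. Vehicle was 0.01% DMSO. EC50 was obtained from sigmoid fits of gradient dilutions.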

[1] = FXR activation, HEK293T FXRE-NanoLuc reporter, 24 hr

Row | Structure (SMILES) | MRGPRX4 activation, Average (MRGPRX4; E3-9, Conc. (Log[M]) −4.0) | MRGPRX4 activation, Average (MRGPRX4; E3-9, Conc. (Log[M]) −4.5) | MRGPRX4 activation, Average (MRGPRX4; E3-9, Conc. (Log[M]) −5.0) | MRGPRX4 activation, Average (MRGPRX4; E3-9, Conc. (Log[M]) −5.4) | MRGPRX4 activation, Average (MRGPRX4; E3-9, Conc. (Log[M]) −5.9) | MRGPRX4 activation, Average (MRGPRX4; E3-9, Conc. (Log[M]) −6.4) | MRGPRX4 activation, Average (MRGPRX4; E3-9, Conc. (Log[M]) −6.9) | MRGPRX4 activation, Average (MRGPRX4; E3-9, Conc. (Log[M]) −7.3) | MRGPRX4 activation, Average (MRGPRX4; E3-9, Conc. (Log[M]) −7.8) | MRGPRX4 activation, Average (MRGPRX4; E3-9, Conc. (Log[M]) −8.3) | EC50 (MRGPRX4) | Efficacy (maximum measured induction of NanoLuc, normalized to CDCA set as 100%) (human FXR (NR1H4); [1]) | EC50 (human FXR (NR1H4); [1]) | MRGPRX4 activation, fluorescence change (dF/F0), Average (MRGPRX4; Conc. (Log[M]) −4) | MRGPRX4 activation, fluorescence change (dF/F0), Average (MRGPRX4; Conc. (Log[M]) −4.5) | MRGPRX4 activation, fluorescence change (dF/F0), Average (MRGPRX4; Conc. (Log[M]) −5) | MRGPRX4 activation, fluorescence change (dF/F0), Average (MRGPRX4; Conc. (Log[M]) −5.5) | MRGPRX4 activation, fluorescence change (dF/F0), Average (MRGPRX4; Conc. (Log[M]) −6) | MRGPRX4 activation, fluorescence change (dF/F0), Average (MRGPRX4; Conc. (Log[M]) −7) | other results
1 | CC[C@H]1[C@@H](O)[C@@H]2[C@H](CC[C@]3(C)[C@@H]([C@H](C)CCNC(=O)NS(=O)(=O)c4cccs4)CC[C@@H]23)[C@@]2(C)CCCC[C@@H]12 [5-25] | 0.393 | 0.016 | 0.001 | 0.016 | 0.011 | 0.011 | 0.008 | 0.013 | 0.013 | 0.018 | > 100 µM | C (100%<efficacy <=300%) | 1 to 10 µM |  |  |  |  |  |  | 
2 | CC[C@H]1[C@@H](O)[C@@H]2[C@H](CC[C@]3(C)[C@@H]([C@H](C)CCNC(=O)C(=O)NS(=O)(=O)c4cc(F)ccc4F)CC[C@@H]23)[C@@]2(C)CCCC[C@@H]12 [8-5] | 0.030 | 0.016 | 0.018 | 0.018 | 0.018 | 0.016 | 0.020 | 0.016 | 0.011 | 0.011 | > 100 µM | C (100%<efficacy <=300%) | < 1 µM |  |  |  |  |  |  | 
3 | CC[C@H]1[C@@H](O)[C@@H]2[C@H](CC[C@]3(C)[C@@H]([C@H](C)CO)CC[C@@H]23)[C@@]2(C)CCCC[C@@H]12 [compound 73] |  |  |  |  |  |  |  |  |  |  | > 100 µM | A (efficacy >400%) | 1 to 10 µM | 0.098 | 0.042 | −0.031 | −0.031 | −0.020 | −0.023 | MRGPRX4 activation, fluorescence change (dF/F0), Average (MRGPRX4; Conc. (Log[M]) −8): −0.023; MRGPRX4 activation, fluorescence change (dF/F0), Average (MRGPRX4; Conc. (Log[M]) −9): −0.014
4 | CC[C@H]1[C@@H](O)[C@@H]2[C@H](CC[C@]3(C)[C@@H]([C@H](C)CCC(=O)O)CC[C@@H]23)[C@@]2(C)CCC(F)(F)C[C@@H]12 [compound 55] | 0.006 | 0.004 | 0.018 | 0.023 | 0.019 | 0.019 | 0.016 | 0.019 | 0.016 | 0.018 | > 100 µM | C (100%<efficacy <=300%) | < 1 µM |  |  |  |  |  |  | 
5 | CC[C@H]1[C@@H](O)[C@@H]2[C@H](CC[C@]3(C)[C@@H]([C@H](C)CNC(=O)NS(=O)(=O)c4ccc5c(c4)CCC(C)(C)O5)CC[C@@H]23)[C@@]2(C)CCCC[C@@H]12 [20-2] | 0.025 | 0.012 | 0.021 | 0.019 | 0.025 |  |  |  |  |  | > 100 µM | B (300%<efficacy <=400%) | 1 to 10 µM |  |  |  |  |  |  | 
6 | CC[C@H]1[C@@H](O)[C@@H]2[C@H](CC[C@]3(C)[C@@H]([C@H](C)CCC(=O)OC)CC[C@@H]23)[C@@]2(C)CCCC[C@@H]12 [1-4] |  |  |  |  |  |  |  |  |  |  | > 100 µM | C (100%<efficacy <=300%) | 1 to 10 µM | 0.098 | 0.004 | −0.014 | −0.004 | −0.011 | −0.006 | MRGPRX4 activation, fluorescence change (dF/F0), Average (MRGPRX4; Conc. (Log[M]) −8): −0.009; MRGPRX4 activation, fluorescence change (dF/F0), Average (MRGPRX4; Conc. (Log[M]) −9): −0.020
7 | CC[C@H]1[C@@H](O)[C@@H]2[C@H](CC[C@]3(C)[C@@H]([C@H](C)CCNC(=O)C(=O)NS(=O)(=O)c4cccs4)CC[C@@H]23)[C@@]2(C)CCCC[C@@H]12 [8-2] | 0.020 | 0.018 | 0.018 | 0.016 | 0.018 | 0.011 | 0.018 | 0.008 | 0.011 | 0.006 | > 100 µM |  | < 1 µM |  |  |  |  |  |  | Efficacy (maximum measured induction of NanoLuc, normalized to CDCA set as 100%) (human FXR (NR1H4)): B (key: A: efficacy >400%; B: 300%<efficacy <=400%; C: 100%<efficacy <=300%; D: efficacy <=100%)
8 | CC(O)CC[C@@H](C)[C@H]1CC[C@H]2[C@@H]3CC[C@@H]4CCCC[C@]4(C)[C@H]3CC[C@]12C (some centres unmarked) [2-2] |  |  |  |  |  |  |  |  |  |  | > 100 µM | C (100%<efficacy <=300%) | > 10 µM |  |  |  |  |  |  | 
9 | CC[C@H]1[C@@H](O)[C@@H]2[C@H](CC[C@]3(C)[C@@H]([C@H](C)CCNC(=O)NS(=O)(=O)N4CCCC4)CC[C@@H]23)[C@@]2(C)CCCC[C@@H]12 [5-11] |  |  |  |  |  |  |  |  |  |  | > 100 µM | C (100%<efficacy <=300%) | 1 to 10 µM | 0.057 | 0.030 | 0.033 | 0.013 | 0.023 | 0.067 | 
10 | CC[C@H]1[C@@H](O)[C@@H]2[C@H](CC[C@]3(C)[C@@H]([C@H](C)CCNC(=O)NS(=O)(=O)c4ccc(C5(CO)CCCC5)cc4)CC[C@@H]23)[C@@]2(C)CCCC[C@@H]12 [5-21] |  |  |  |  |  |  |  |  |  |  | > 100 µM | C (100%<efficacy <=300%) | < 1 µM |  | 0.016 |  |  |  |  | MRGPRX4 activation, fluorescence change (dF/F0), Average (MRGPRX4; Conc. (Log[M]) −4.0): 0.018; MRGPRX4 activation, fluorescence change (dF/F0), Average (MRGPRX4; Conc. (Log[M]) −5.0): 0.020; MRGPRX4 activation, fluorescence change (dF/F0), Average (MRGPRX4; Conc. (Log[M]) −5.4): 0.018; MRGPRX4 activation, fluorescence change (dF/F0), Average (MRGPRX4; Conc. (Log[M]) −5.9): 0.018; MRGPRX4 activation, fluorescence change (dF/F0), Average (MRGPRX4; Conc. (Log[M]) −6.4): 0.016; MRGPRX4 activation, fluorescence change (dF/F0), Average (MRGPRX4; Conc. (Log[M]) −6.9): 0.018; MRGPRX4 activation, fluorescence change (dF/F0), Average (MRGPRX4; Conc. (Log[M]) −7.3): 0.016; MRGPRX4 activation, fluorescence change (dF/F0), Average (MRGPRX4; Conc. (Log[M]) −7.8): 0.020; MRGPRX4 activation, fluorescence change (dF/F0), Average (MRGPRX4; Conc. (Log[M]) −8.3): 0.018
11 | CC[C@H]1[C@@H](O)[C@@H]2[C@H](CC[C@]3(C)[C@@H]([C@H](C)CCC(=O)NS(=O)(=O)C(C)(C)C)CC[C@@H]23)[C@@]2(C)CCCC[C@@H]12 [4-1] |  |  |  |  |  |  |  |  |  |  | > 100 µM | B (300%<efficacy <=400%) | < 1 µM | 0.057 | 0.035 | −0.037 | −0.013 | 0.002 | 0.009 | MRGPRX4 activation, fluorescence change (dF/F0), Average (MRGPRX4; Conc. (Log[M]) −8): 0.004; MRGPRX4 activation, fluorescence change (dF/F0), Average (MRGPRX4; Conc. (Log[M]) −9): 0.005
12 | CC[C@H]1[C@@H](O)[C@@H]2[C@H](CC[C@]3(C)[C@@H]([C@H](C)CCNS(=O)(=O)C[C@]45CC[C@H](CC4=O)C5(C)C)CC[C@@H]23)[C@@]2(C)CCCC[C@@H]12 [6-3] | 0.016 | 0.008 | 0.020 | 0.016 | 0.018 | 0.018 | 0.011 | 0.018 | 0.020 | 0.013 | > 100 µM | C (100%<efficacy <=300%) | 1 to 10 µM |  |  |  |  |  |  | 
13 | CC[C@H]1[C@@H](O)[C@@H]2[C@H](CC[C@]3(C)[C@@H]([C@H](C)CCO)CC[C@@H]23)[C@@]2(C)CCCC[C@@H]12 [2-5] |  |  |  |  |  |  |  |  |  |  | > 100 µM | A (efficacy >400%) | 1 to 10 µM |  |  |  |  |  |  | 
